Read-outs that look alike come from different tables or passages of the source.
How the values were obtained:
[1] = target: T1, Dectin-1b (Homo sapiens, UniProt Q9BXN2); test: hDectin1b-HEK293 NFκB-SEAP reporter cell assay (QuantiBlue); assay type: cell-based; conditions: for NFκB-linked SEAP activity (Dectin-1b activation): β-glucans 1, 10 & 100 μg/mL, 6 h, relative to untreated cells; for blocking of BGP- or dWGP-driven NFκB-SEAP activation: pre-incubation 1 h before BGP or dWGP 100 μg/mL
T1 construct: host or cells: HEK293 (HEK-Blue) NFκB-SEAP reporter cells
T1 sequence (Q9BXN2 1-201 isoform Q9BXN2-2): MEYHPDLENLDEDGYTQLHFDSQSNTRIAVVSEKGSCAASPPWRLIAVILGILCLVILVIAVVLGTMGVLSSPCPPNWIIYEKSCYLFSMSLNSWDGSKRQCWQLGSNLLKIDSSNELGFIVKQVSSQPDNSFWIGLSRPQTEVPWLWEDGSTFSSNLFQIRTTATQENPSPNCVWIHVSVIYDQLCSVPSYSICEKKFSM
Procedure: SEAP activity in supernatants was measured 6 h post-stimulation and quantified relative to untreated cells (−).
hDectin1b-HEK293 NFκB-SEAP reporter cells were obtained from Invivogen and were cultured according to manufacturer's instructions. Puromycin and HEK-Blue™ CLR Selection (Invivogen) were used as selective antibiotics and cells were cultured using DMEM (4.5 g/L glucose), 10% (v/v) fetal bovine serum (FBS), 100 U/ml penicillin, 100 μg/ml streptomycin, 100 μg/ml Normocin and 2 mM L-glutamine.
hDectin1b-HEK293 NFκB-SEAP reporter cells (Invivogen) were cultured according to manufacturer's instructions. Reporter cell assays were carried out by seeding at 50,000 cells per well in 180 μL in a 96 well flat-bottomed plate and incubating the cells with 20 μL of the indicated agonists overnight. SEAP activity was measured using QUANTI-Blue (Invivogen) according to the manufacturer's instructions. Briefly, 20 μL of supernatant was added to 180 μL of QUANTI-Blue solution and incubated at 37° C. for 15 minutes. Optical density at 620 nm was then measured using a plate reader.

[2] = tested on: human monocytes / monocyte-derived macrophages (hMDM); test: Human monocyte training assay: cytokine ELISA after restimulation of monocyte-derived macrophages; assay type: cell-based
[3] = tested on: mTOR (phospho-S6 ribosomal protein); test: Intracellular phospho-S6 staining by flow cytometry (mTOR activity); assay type: cell-based, human; conditions: 15 min pre-treatment, dWGP 10 μg/mL 2 h
Procedure: To analyse phospho-S6 ribosomal protein activity after β-glucan treatment, PBMCs were isolated as above and resuspended in RPMI-1640 media supplemented with 10% human AB serum (Sigma-Aldrich) at 2×10^6/mL. Cells were first incubated with metabolic inhibitors for 15 min as indicated above. […] After the incubation time, cells were resuspended by vortexing quickly, washed in flow buffer; [PBS-1× (Gibco) supplemented with 5% heat inactivated FBS (Gibco) and 0.1% Sodium azide (Sigma)] and the following flow cytometry staining protocol was applied to all samples with up to 100,000 cells per sample. Cells were stained with fixable viability stain ZombieAqua™ (Biolegend) at the concentration of 1:500 for 15 minutes. Subsequently, samples were washed with flow buffer and incubated with anti-Dectin-1-PE (clone 15E2, Biolegend) antibody for Dectin-1 surface staining, then washed and fixed 20 minutes with IC Fixation Buffer (Invitrogen). […] All cells were subsequently washed with flow buffer and resuspended 20 minutes with IC Fixation Buffer (Invitrogen) for fixation. Cells were then washed with flow buffer, incubated at 4° C. for 30 minutes with Perm/Wash Buffer (BD Biosciences) containing anti-phospho-S6-PE (Ser235/236) (cloneD57.2.2E, Cell Signaling) at 1:200 for intracellular pS6 staining, and finally washed again with flow buffer. Compensation controls were obtained after staining UltraComp eBeads™ Compensation Beads (Invitrogen) with the appropriate antibodies. Cells were acquired on the BD flow cytometer Canto II with FACSDiva software. Data analysis and flow charts were performed using FlowJo software v.7.6 (TreeStar).

[4] = tested on: human monocytes; test: TNF production by monocytes 24 h post-training (monocyte activation); assay type: cell-based; conditions: TNF 24 h after dWGP
[5] = target: T2, Dectin-1 (Homo sapiens, UniProt Q9BXN2); test: Surface Dectin-1 expression on monocytes by flow cytometry; assay type: cell-based; conditions: CytD 10 μM 1 h before dWGP 100 μg/mL 15 min
T2 construct: incubated with anti-Dectin-1-PE (clone 15E2, Biolegend) antibody for Dectin-1 surface staining; endogenous in cells; host or cells: primary human monocytes (PBMC from buffy coats)
T2 sequence (Q9BXN2 1-247): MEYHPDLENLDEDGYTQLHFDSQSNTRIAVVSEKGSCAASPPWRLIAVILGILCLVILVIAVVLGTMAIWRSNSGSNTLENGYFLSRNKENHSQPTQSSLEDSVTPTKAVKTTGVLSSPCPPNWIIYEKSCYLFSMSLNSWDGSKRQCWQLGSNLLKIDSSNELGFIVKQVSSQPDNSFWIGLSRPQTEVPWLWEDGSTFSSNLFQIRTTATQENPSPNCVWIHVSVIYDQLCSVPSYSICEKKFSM
Procedure: To analyse phospho-S6 ribosomal protein activity after β-glucan treatment, PBMCs were isolated as above and resuspended in RPMI-1640 media supplemented with 10% human AB serum (Sigma-Aldrich) at 2×10^6/mL. Cells were first incubated with metabolic inhibitors for 15 min as indicated above. […] After the incubation time, cells were resuspended by vortexing quickly, washed in flow buffer; [PBS-1× (Gibco) supplemented with 5% heat inactivated FBS (Gibco) and 0.1% Sodium azide (Sigma)] and the following flow cytometry staining protocol was applied to all samples with up to 100,000 cells per sample. Cells were stained with fixable viability stain ZombieAqua™ (Biolegend) at the concentration of 1:500 for 15 minutes. Subsequently, samples were washed with flow buffer and incubated with anti-Dectin-1-PE (clone 15E2, Biolegend) antibody for Dectin-1 surface staining, then washed and fixed 20 minutes with IC Fixation Buffer (Invitrogen). Alternatively, cells were incubated with anti-CD14-APC (clone M5E2, Biolegend), anti-CD16-PE-Cy7 (clone 3G8, Biolegend), anti-HLA-DR-BB515 (clone G46-6, BD Bioscience) at a concentration of 1:100 in flow buffer for 30 minutes at 4° C. All cells were subsequently washed with flow buffer and resuspended 20 minutes with IC Fixation Buffer (Invitrogen) for fixation. […]

[6] = tested on: bone marrow hematopoietic stem & progenitor cells (HSPC); test: In vivo induction of trained immunity: flow cytometry of mouse bone marrow HSPC populations; conditions: 0.050% w/w in chow, 4 weeks

Q: Pustulan was tested. Which “NFκB-linked SEAP activity (Dectin-1b activation)” value [1] did it give?
A: drive NFκB signaling in a dose-dependent fashion

Q: For `Oc1cc(O)cc(/C=C/c2ccc(O)c(O)c2)c1` [PIC, picethanol], which “effect of inhibitor pre-treatment on β-glucan training (TNF after LPS restimulation)” value [2] is on record?
A: suppressed monocyte training driven by both BGP and dWGP

Q: What about the “blocking of BGP- or dWGP-driven NFκB-SEAP activation” value [1] of the same molecule?
A: blocking NFκB activation driven by dWGP and BGP

Q: And the “effect of inhibitor pre-treatment on dWGP-driven p-S6 / mTOR activation” value [3]?
A: did not affect mTOR up-regulation

Q: And the “effect of inhibitor pre-treatment on early monocyte TNF production driven by dWGP” value [4]?
A: block traditional pro-inflammatory signaling and monocyte TNF production

Q: What does the source list for Curdlan?
A: TNF production upon LPS restimulation (training) ([2]; monocytes exposed 24 h, matured 5 days, LPS 10 ng/ml 6 h, vs untrained): A trend toward some training was observed; NFκB-linked SEAP activity (Dectin-1b activation) [1]: drive NFκB signaling in a dose-dependent fashion

Q: What does the source list for `C=C1[C@@H](C)[C@H]2[C@H](Cc3ccccc3)NC(=O)[C@]23[C@H](OC(C)=O)/C=C/[C@@](C)(O)C(=O)[C@@H](C)C/C=C/[C@H]3[C@@H]1O` [cytD, cytochalasin-D]?
A: effect of inhibitor pre-treatment on β-glucan training (TNF after LPS restimulation) [2]: preferentially blocked the training effect; effect of inhibitor on dWGP-induced loss of surface Dectin-1 [5]: blunts this effect; effect of inhibitor pre-treatment on dWGP-driven p-S6 / mTOR activation [3]: blocked monocyte mTOR activation driven by dWGP

Q: Which results are given for `Cc1ccc(S(=O)(=O)/C=C/C#N)cc1` [BAY 11-7082]?
A: effect of inhibitor pre-treatment on β-glucan training (TNF after LPS restimulation) ([2]; inhibitor added to monocytes prior to training with dWGP and/or BGP, LPS 10 ng/ml 6 h): abolishment of LPS-restimulation driven TNF production in trained macrophages; effect of inhibitor pre-treatment on early monocyte TNF production driven by dWGP [4]: enhanced early TNF production

Q: For laminarin, which “effect of inhibitor pre-treatment on β-glucan training (TNF after LPS restimulation)” value [2] is on record?
A: more effective at all doses tested

Q: And the “blocking of BGP- or dWGP-driven NFκB-SEAP activation” value [1]?
A: block Dectin-1b mediated NFκB activation

Q: How did the “effect of inhibitor pre-treatment on dWGP-driven p-S6 / mTOR activation” value [3] turn out when `CO/C1=C\C(C)=C\[C@@H](C)[C@@H](O)[C@@H](C)C/C(C)=C/C=C/[C@H](OC)[C@@H]([C@@H](C)[C@@H](O)[C@H](C)[C@@]2(O)C[C@@H](O)[C@H](C)[C@@H](C(C)C)O2)OC1=O` [bafilomycin A1] was run?
A: profound decrease in monocyte mTOR activation by dWGP

Q: How did the “effect of inhibitor pre-treatment on β-glucan training (TNF after LPS restimulation)” value [2] turn out when `O=CC[C@@H](O)[C@H](O)[C@H](O)CO` [2DG, 2-deoxyglucose] was run?
A: abolished the ability of dWGP to increase LPS-restimulation responses

Q: For inulin, which “trained immunity-like effects (bone marrow progenitors, BMDM cytokines)” value [6] is on record?
A: behaving similarly to control chow-fed mice

From patent US20260240895A1, “BETA-GLUCAN PARTICLES FOR TRAINED IMMUNITY” (THE PROVOST, FELLOWS, FOUNDATION SCHOLARS, AND THE OTHER …, priority 2022, published 2026)
